What was measured:
Candida albicans = assay: Antimicrobial screening by agar dilution, Candida albicans; type: cell-based; conditions: after 10, 20, 40 and 60 minutes at all dilutions 1:100, 1:200, 1:400, 1:800
Protocol: (§1) The antibacterial properties of the synthesized compound 2-(2-ethoxyethoxy)-6-(4-hydroxyphenyl)-4-(4-methylphenyl)nicotinonitrile were studied by the method of agar dilution. Test solutions of each compound was prepared in concentration of 1% using dimethylformamide as a solvent then they are diluted in physiological solution to obtain the final experimental dilutions 1: 100, 1:200, 1:400, 1:800. The effect of these substances are compared with furacillin in a controllable study. The testing microbes used were gram positive bacteria Staphylococcus aureus, gram negative bacteria Pseudomonas aeruginosa and Escherichia coli and Candida albicans fungus. The experiments used for this survey were meat-pentonlu agar (EPA) for cultivation of bacteria and Saburo environment for the fungus. Each experiment used 1 mL of test solution on each plate […]. Two drops of emulsified with microbes feel were added. All experimental samples were taken from the agar after 10, 20, 40, 60 minutes in the environment on the basis of Patrk planted. The bacteria were cultivated at a temperature of 37° C. for 1 day and the mushroom was kept in a thermostat for 2 hours at a temperature of 28° C. Then results were checked.

Escherichia coli = assay: Antimicrobial screening by agar dilution, Escherichia coli; type: cell-based; conditions: after 10, 20, 40 and 60 minutes at all dilutions 1:100, 1:200, 1:400, 1:800
Protocol: as §1

Pseudomonas aeruginosa = assay: Antimicrobial screening by agar dilution, Pseudomonas aeruginosa; type: cell-based; conditions: after 10, 20, 40 and 60 minutes at all dilutions 1:100, 1:200, 1:400, 1:800
Protocol: as §1

Staphylococcus aureus = assay: Antimicrobial screening by agar dilution, Staphylococcus aureus; type: cell-based; conditions: after 10, 20, 40 and 60 minutes at all dilutions 1:100, 1:200, 1:400, 1:800
Protocol: as §1

melting point: 175 to 177 °C
Compound: CCOCCOc1nc(-c2ccc(O)cc2)cc(-c2ccc(C)cc2)c1C#N [2-(2-ethoxyethoxy)-6-(4-hydroxyphenyl)-4-(4-methylphenyl)nicotinonitrile]
inhibition activity (summary in words) (Candida albicans): highest inhibition activity
inhibition activity (summary in words) (Escherichia coli): highest inhibition activity
inhibition activity (summary in words) (Pseudomonas aeruginosa): highest inhibition activity
inhibition activity (summary in words) (Staphylococcus aureus): highest inhibition activity
